In the supplement of paper PMC10307832:

Experiments:
Test in all cases: relative viability (nuclei count vs DMSO), 5 days (fraction); higher = more cells survive
[1] = tested on: ABC-1
Outline: (§1)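 One day after seeding in 1536-well plates, lung cancer cell lines were dosed by pin tool. Dosing was either single-drug or a fixed anchor-drug dose plus five library-drug doses (not always all listed) in √10 steps. After 5 days, nuclei were stained in one fix-and-stain step and counted on 4× images, and relative viability is the nuclei count of treated wells over that of vehicle wells, given as the median of duplicate plates.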

[2] = tested on: CAL-12T
Outline: as §1

[3] = tested on: ChaGo-K-1
Outline: as §1

[4] = tested on: HCC-44
Outline: as §1

[5] = tested on: HCC-827
Outline: as §1

[6] = tested on: LCLC-103H
Outline: as §1

[7] = tested on: LU99A
Outline: as §1

[8] = tested on: LXF-289
Outline: as §1

[9] = tested on: NCI-H1395
Outline: as §1

[10] = tested on: NCI-H1666
Outline: as §1

[11] = tested on: NCI-H1755
Outline: as §1

[12] = tested on: NCI-H1792
Outline: as §1

[13] = tested on: NCI-H1793
Outline: as §1

[14] = tested on: NCI-H1944
Outline: as §1

[15] = tested on: NCI-H2126
Outline: as §1

[16] = tested on: NCI-H2347
Outline: as §1

[17] = tested on: NCI-H3122
Outline: as §1

[18] = tested on: NCI-H322M
Outline: as §1

[19] = tested on: NCI-H358
Outline: as §1

[20] = tested on: NCI-H520
Outline: as §1

[21] = tested on: RERF-LC-KJ
Outline: as §1

[22] = tested on: SK-LU-1
Outline: as §1

## CN1CCN(CCOc2cc(OC3CCOCC3)c3c(Nc4c(Cl)ccc5c4OCO5)ncnc3c2)CC1 [Saracatinib] + COc1cccc2cc(-c3nc([C@H]4CC[C@H](C(=O)O)CC4)n4ncnc(N)c34)[nH]c12 [OSI-027] (partner 0.5 µM)
[1]; first compound 0.02 µM
  relative viability: 0.428
[1]; first compound 0.2 µM
  relative viability: 0.65
[1]; first compound 0.6325 µM
  relative viability: 0.547
[1]; first compound 2 µM
  relative viability: 0.543
[2]; first compound 0.02 µM
  relative viability: 0.734
[2]; first compound 0.2 µM
  relative viability: 0.677
[2]; first compound 0.6325 µM
  relative viability: 1.08
[2]; first compound 2 µM
  relative viability: 0.57
[3]; first compound 0.02 µM
  relative viability: 0.707
[3]; first compound 0.2 µM
  relative viability: 0.533
[3]; first compound 0.6325 µM
  relative viability: 0.519
[3]; first compound 2 µM
  relative viability: 0.524
[4]; first compound 0.02 µM
  relative viability: 0.483
[4]; first compound 0.2 µM
  relative viability: 0.522
[4]; first compound 0.6325 µM
  relative viability: 0.592
[4]; first compound 2 µM
  relative viability: 0.543
[5]; first compound 0.02 µM
  relative viability: 0.791
[5]; first compound 0.2 µM
  relative viability: 0.564
[5]; first compound 0.6325 µM
  relative viability: 0.259
[5]; first compound 2 µM
  relative viability: 0.122
[6]; first compound 0.02 µM
  relative viability: 0.481
[6]; first compound 0.2 µM
  relative viability: 0.427
[6]; first compound 0.6325 µM
  relative viability: 0.505
[6]; first compound 2 µM
  relative viability: 0.459
[7]; first compound 0.02 µM
  relative viability: 0.317
[7]; first compound 0.2 µM
  relative viability: 0.283
[7]; first compound 0.6325 µM
  relative viability: 0.303
[7]; first compound 2 µM
  relative viability: 0.277
[8]; first compound 0.02 µM
  relative viability: 0.765
[8]; first compound 0.2 µM
  relative viability: 0.735
[8]; first compound 0.6325 µM
  relative viability: 0.744
[8]; first compound 2 µM
  relative viability: 0.677
[9]; first compound 0.02 µM
  relative viability: 0.618
[9]; first compound 0.2 µM
  relative viability: 0.613
[9]; first compound 0.6325 µM
  relative viability: 0.583
[9]; first compound 2 µM
  relative viability: 0.485
[10]; first compound 0.02 µM
  relative viability: 0.914
[10]; first compound 0.2 µM
  relative viability: 0.863
[10]; first compound 0.6325 µM
  relative viability: 1.2
[10]; first compound 2 µM
  relative viability: 1.07
[11]; first compound 0.02 µM
  relative viability: 0.691
[11]; first compound 0.2 µM
  relative viability: 0.643
[11]; first compound 0.6325 µM
  relative viability: 0.706
[11]; first compound 2 µM
  relative viability: 0.634
[12]; first compound 0.02 µM
  relative viability: 0.771
[12]; first compound 0.2 µM
  relative viability: 0.462
[12]; first compound 0.6325 µM
  relative viability: 0.809
[12]; first compound 2 µM
  relative viability: 0.558
[13]; first compound 0.02 µM
  relative viability: 0.303
[13]; first compound 0.6325 µM
  relative viability: 0.312
[13]; first compound 2 µM
  relative viability: 0.253
[14]; first compound 0.02 µM
  relative viability: 0.43
[14]; first compound 0.6325 µM
  relative viability: 0.324
[14]; first compound 2 µM
  relative viability: 0.274
[15]; first compound 0.02 µM
  relative viability: 0.8
[15]; first compound 0.2 µM
  relative viability: 0.672
[15]; first compound 0.6325 µM
  relative viability: 0.662
[15]; first compound 2 µM
  relative viability: 0.589
[16]; first compound 0.02 µM
  relative viability: 0.348
[16]; first compound 0.2 µM
  relative viability: 0.373
[16]; first compound 0.6325 µM
  relative viability: 0.406
[16]; first compound 2 µM
  relative viability: 0.306
[17]; first compound 0.02 µM
  relative viability: 0.957
[17]; first compound 0.2 µM
  relative viability: 0.357
[17]; first compound 0.6325 µM
  relative viability: 0.968
[17]; first compound 2 µM
  relative viability: 0.718
[18]; first compound 0.02 µM
  relative viability: 0.56
[18]; first compound 0.2 µM
  relative viability: 0.499
[18]; first compound 0.6325 µM
  relative viability: 0.449
[18]; first compound 2 µM
  relative viability: 0.275
[19]; first compound 0.02 µM
  relative viability: 0.707
[19]; first compound 0.2 µM
  relative viability: 0.391
[19]; first compound 0.6325 µM
  relative viability: 0.466
[19]; first compound 2 µM
  relative viability: 0.289
[20]; first compound 0.02 µM
  relative viability: 0.191
[20]; first compound 0.6325 µM
  relative viability: 0.262
[20]; first compound 2 µM
  relative viability: 0.176
[21]; first compound 0.02 µM
  relative viability: 0.575
[21]; first compound 0.2 µM
  relative viability: 0.569
[21]; first compound 0.6325 µM
  relative viability: 0.546
[21]; first compound 2 µM
  relative viability: 0.52
[22]; first compound 0.02 µM
  relative viability: 0.33
[22]; first compound 0.2 µM
  relative viability: 0.28
[22]; first compound 0.6325 µM
  relative viability: 0.245
[22]; first compound 2 µM
  relative viability: 0.172
